We go through six molecules from patent US4316889A, “Novel peptidyl-arginine aldehyde derivatives and process for the preparation thereof” (Richter Gedeon Vegyeszeti Gyar Rt., priority 1979, dated 1982).

Square brackets hold non-standard residues; d marks the D form. Peptide text beside a SMILES is read from it. * marks the point of attachment. d(aIle) = CC[C@H](C)[C@@H](N)C(=O)O; Bz = O=C(c1ccccc1)*

The target in data set [1] is thrombin (Homo sapiens, UniProt P00734). To be noted: Hungarian Patent No. 169,870; cited from earlier work.
The test system of the next data set is thrombin-time. The data set can be described thus: In vivo antithrombin activity after oral administration to dogs, measured in a Thromboelastograph. The arrangement: species or system dog. To be noted: 50 mg./kg., for a period of two hours. The text has this: (§1) This effect is substantial not only at intravenous, intramuscular and subcutaneous but also at oral administration.

Data set [2] deals with T1, US Standard Human Thrombin (Homo sapiens, UniProt P00734).
T1 construct: US Standard Human Thrombin; purchased NIH, Bethesda, Maryland, USA
The data set can be described thus: Antithrombin activity: amount of drug for tenfold increase of the thrombin-time of fibrinogen. The note with it: for Amount of drug required for tenfold increase of thrombin-time following dissolution of peptide, 0 hour: 0 hour after dissolution in TRIS/HCl buffer pH=7.4, bovine fibrinogen, thrombin 5 U/ml; for relative activity (ra), 20 hours: 20 hours in TRIS/HCl buffer, relative to H-D-Phe-Pro-Arg(COOH)-H at 0 hour = 100; for Amount of drug required for tenfold increase of thrombin-time following dissolution of peptide, 20 hours: 20 hours standing in TRIS/HCl buffer pH=7.4; for change of antithrombin potency upon standing in solution: TRIS/HCl buffer, pH=7.4. Format: biochemical. The method, then: Antithrombin activity is defined by the amount of drug required for a tenfold increase of the thrombin-time of fibrinogen (thrombintime: time of clotting induced by thrombin).
Antithrombin activities were assayed in the following system:
0.5 percent bovine fibrinogen (0.2 ml). in 0.9 percent sodium chloride solution, peptide in TRIS/HCl buffer (0.1 ml., pH=7.4), and US Standard Human Thrombin (0.1 ml.) (NIH, Bethesda, Maryland, USA; 5 U/ml.). The clotting time of the system devoid of peptide is 15 seconds.

The target in a further data set is T2, papain (Carica papaya, UniProt P00784).
T2 sequence (P00784 134-345): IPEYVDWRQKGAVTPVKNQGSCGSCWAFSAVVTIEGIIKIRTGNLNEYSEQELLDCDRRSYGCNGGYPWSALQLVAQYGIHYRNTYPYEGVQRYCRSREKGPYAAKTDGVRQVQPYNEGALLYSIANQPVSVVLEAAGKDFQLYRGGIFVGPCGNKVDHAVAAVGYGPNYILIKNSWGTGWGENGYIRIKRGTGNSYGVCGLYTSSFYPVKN
The note with it: literature (Kawamura et al.; Umezawa); cited from earlier work.

The target of a further data set is plasmin (Homo sapiens, UniProt P00747). The note with it: literature (Kawamura et al.; Umezawa); cited from earlier work.
The next data set has as its system trypsin. To be noted: literature (Kawamura et al.; Umezawa); cited from earlier work.
Data set [3] concerns thrombin. The data set can be described thus: In vivo trials of antithrombin activity on five species. To be noted: mouse, rat, rabbit, dog, monkey; intravenous, intramuscular, subcutaneous and oral administration.
Excerpt: as §1

Sequence of plasmin (P00747 581-810 limits assumed, species assumed): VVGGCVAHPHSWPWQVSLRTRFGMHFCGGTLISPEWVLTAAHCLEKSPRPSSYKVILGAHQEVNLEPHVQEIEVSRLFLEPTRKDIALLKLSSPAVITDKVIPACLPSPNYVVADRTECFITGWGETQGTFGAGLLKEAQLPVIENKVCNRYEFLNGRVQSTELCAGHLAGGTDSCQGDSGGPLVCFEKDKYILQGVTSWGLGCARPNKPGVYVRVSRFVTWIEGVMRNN
Sequence of plasmin (P00747 97-580 partner limits assumed, species assumed): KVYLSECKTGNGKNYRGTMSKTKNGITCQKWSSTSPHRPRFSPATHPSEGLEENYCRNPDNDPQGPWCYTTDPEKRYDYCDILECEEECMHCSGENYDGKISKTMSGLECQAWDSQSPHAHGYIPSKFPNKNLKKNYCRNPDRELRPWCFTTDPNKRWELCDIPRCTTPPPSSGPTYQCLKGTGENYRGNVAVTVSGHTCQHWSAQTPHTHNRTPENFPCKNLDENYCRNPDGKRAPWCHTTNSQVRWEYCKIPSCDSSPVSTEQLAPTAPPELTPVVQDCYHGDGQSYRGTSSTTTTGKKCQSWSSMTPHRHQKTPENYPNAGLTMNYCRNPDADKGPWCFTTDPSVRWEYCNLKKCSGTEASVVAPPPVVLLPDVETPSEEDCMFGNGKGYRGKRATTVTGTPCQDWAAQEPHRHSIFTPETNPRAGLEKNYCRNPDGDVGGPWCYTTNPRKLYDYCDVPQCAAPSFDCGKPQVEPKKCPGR

`CC[C@H](C)[C@@H](NC(=O)c1ccccc1)C(=O)N1CCC[C@H]1C(=O)N[C@H](C=O)CCCNC(=N)N.Cc1ccc(S(=O)(=O)O)cc1` [benzoyl-D-allo-isoleucyl-L-prolyl-L-arginine aldehyde p-toluenesulfonate] (Bz-[d(aIle)]-Pro-Arg-aldehyde): at thrombin [1], the “antithrombin activity (literature)” value is reported as “marked antithrombin activity”.

With `CC(=O)O.N=C(N)NCCC[C@@H](C=O)NC(=O)[C@@H]1CCCN1C(=O)[C@H](N)Cc1ccccc1` [H--D-Phe-- Pro--Arg--H . 2 CH3 COOH, D-phenylalanyl-L-prolyl-L-arginine aldehyde acetate], the “antithrombin activity (literature)” value on thrombin [1] is recorded as “marked antithrombin activity”. Further, the “increase of thrombin-time in vivo” value in the data set on thrombin-time is listed as “practically no influence”. Further, in data set [2], the “Amount of drug required for tenfold increase of thrombin-time following dissolution of peptide, 0 hour” value lay in the range of 0.37 to 1.25 µg/mL; the “relative activity (ra), 20 hours” value is recorded as 4; the “Amount of drug required for tenfold increase of thrombin-time following dissolution of peptide, 20 hours” value stood at 6.2 µg/mL; the “change of antithrombin potency upon standing in solution” value is reported as “reduced”.

Regarding `CC(=O)N[C@@H](CC(C)C)C(=O)N[C@@H](CC(C)C)C(=O)N[C@H](C=O)CCCNC(=N)N.Cl` [acetyl-L-leucyl-L-leucyl-arginine aldehyde hydrochloride], the inhibition of papain result on papain was “capable to inhibit”. Further, the inhibition of plasmin result at plasmin is “capable to inhibit”. The inhibition of trypsin result in the data set on trypsin is reported as “capable to inhibit”.

As to `Cl.N=C(N)NCCC[C@@H](C=O)NC(=O)[C@@H]1CCCN1C(=O)[C@H](N)Cc1ccccc1` [H--D-Phe-- Pro--Arg--H . 2HCl, D-phenylalanyl-L-prolyl-L-arginine aldehyde hydrochloride], in the data set on thrombin-time, the “increase of thrombin-time in vivo” value was “practically no influence”. In data set [2], the “Amount of drug required for tenfold increase of thrombin-time following dissolution of peptide, 0 hour” value lay within 0.35 to 0.95 µg/mL; the “relative activity (ra), 20 hours” value was determined as 5; the “Amount of drug required for tenfold increase of thrombin-time following dissolution of peptide, 20 hours” value was determined as 6.0 µg/mL; the “change of antithrombin potency upon standing in solution” value is “reduced”.

As for `CCC(=O)N[C@@H](CC(C)C)C(=O)N[C@@H](CC(C)C)C(=O)N[C@H](C=O)CCCNC(=N)N.Cl` [propionyl-L-leucyl-L-leucyl-arginine aldehyde hydrochloride], the inhibition of papain result on papain is recorded as “capable to inhibit”. For the same molecule, on plasmin, the inhibition of plasmin entry is on record as “capable to inhibit”. In the data set on trypsin, the inhibition of trypsin result is recorded as “capable to inhibit”.

Take “D-Phenylalanyl-L-prolyl-N^G -carboxyl-L-arginine aldehyde [H--D-Phe-- Pro--Arg(COOH)--H]”: the “in vivo antithrombin effect” value in the data set with thrombin [3] is on record as “substantial”. Also, the “increase of thrombin-time in vivo” value in the data set with thrombin-time is “four to sixfold”. Further, in data set [2], the “Amount of drug required for tenfold increase of thrombin-time following dissolution of peptide, 0 hour” value came to 0.275 µg/mL; the “relative activity (ra), 20 hours” value is 92; the “Amount of drug required for tenfold increase of thrombin-time following dissolution of peptide, 20 hours” value is 0.300 µg/mL. Further, the “relative activity (ra), 0 hour” value in data set [2] (0 hour, activity of H-D-Phe-Pro-Arg(COOH)-H arbitrarily taken as 100) turned out to be 100. Also, in data set [2] (thrombin-fibrinogen reaction, versus H-D-Phe-Pro-Arg-H hydrochloride or acetate), the “antithrombin (enzyme inhibitory) activity compared with the free tripeptide aldehyde salt of corresponding sequence” value was “higher”.
